Read-outs that look alike come from different tables or passages of the source.
Legend:
Experiment in all cases: Fluorimetric PPyrPM assay for group 1B PLA2 inhibition (Example 12)
Format in all cases: biochemical
[1] = target: T1, human group 1B PLA2 (hps PLA2) (Homo sapiens, UniProt P04054); settings: for inhibition at 15 µM: read-out: ILYPSA % inhibition at 15 μM hps PLA2
T1 construct: made in house; host or cells: E. coli
Source text: (§1) In this example, a fluorimetric assay procedure was used to evaluate the indole and indole-related compounds of the invention as inhibitors of group 1B phospholipase A2 (PLA2) from human, mouse and porcine. A description of this assay is found in articles: Leslie, C C and Gelb, M H (2004) Methods in Molecular Biology “Assaying phospholipase A2 activity”, 284:229-242; Singer, A G, et al. (2002) Journal of Biological Chemistry “Interfacial kinetic and binding properties of the complete set of human and mouse groups I, II, V, X, and XII secreted phospholipases A2”, 277:48535-48549, which are incorporated herein as references.
(§2) In general, this assay used a phosphatidylmethanol substrate with a pyrene fluorophore on the terminal end of the sn-2 fatty acyl chain. Without being bound by theory, close proximity of the pyrenes from neighboring phospholipids in a phospholipid vesicle caused the spectral properties to change relative to that of monomeric pyrene. Bovine serum albumin was present in the aqueous phase and captured the pyrene fatty acid when it is liberated from the glycerol backbone owing to the PLA2-catalyzed reaction. However, a potent inhibitor can inhibit the liberation of pyrene fatty acid from the glycerol backbone. […] The effect of a given inhibitor and inhibitor concentration on human, mouse and porcine phospholipase was determined.
(§3) Recombinant human and mouse group 1B PLA2 were cloned and expressed in E. coli as insoluble inclusion bodies. The inclusion bodies were isolated and purified by sonicating cell pellet in lysis buffer (50 mM Tris-HCl pH 7.0, 250 mM NaCl, 0.5% Triton 100), centrifugation at 12,000×g, and washing three times in washing buffer (20 mM Tris-HCl pH 7.0, 250 mM NaCl, 0.5% Triton 100). Then the inclusion bodies were dissolved in dissolving buffer (50 mM Tris-HCl pH 7.0, 250 mM NaCl, 6 M Guanidine-HCl, 1 mM DTT) and dialyzed four times against 10 volumes of refolding buffer (20 mM Tris-HCl pH 7.0, 250 mM NaCl, 0.5M Guanidine-HCl, 5% (w/w) Glycerol, 2 mM reduced glutathione and 0.4 mM oxidized glutathione) at 4° C. The correctly refolded proteins were concentrated using Amicon Stirred cell under nitrogen pressure (<70 psi) and dialyzed against 10 volumes of 50 mM Tris-HCl pH 7.0, 250 mM NaCl and 5% (w/w) glycerol. Human and mouse group 1B PLA2 were further purified by High S ion exchange and gel filtration columns.
(§4) The following reagents and equipments were obtained from commercial vendors: • 1. Porcine group 1B phospholipase A2 • 2. 1-hexadecanoyl-2-(1-pyrenedecanoyl)-sn-glycero-3-phosphomethanol (PPyrPM) • 3. Bovine serum albumin (BSA, fatty acid free) • 4. 2-Amino-2-(hydroxymethyl)-1,3-propanediol, hydrochloride (Tris-HCl) • 5. Calcium chloride • 6. Potassium chloride • 7. Solvents: DMSO, toluene, isopropanol, ethanol • 8. Molecular Devices SPECTRAmax microplate spectrofluorometer • 9. Costar 96 well black wall/clear bottom plate
(§5) The following reagents were prepared: • 10. PPyrPM stock solution (1 mg/ml) in toluene:isopropanol (1:1) • 11. ILY104 inhibitor stock solution (10 mM) in DMSO • 12. 3% (w/v) bovine serum albumin (BSA) • 13. Stock buffer: 50 mM Tris-HCl, pH 8.0, 50 mM KCl and 1 mM CaCl2
(§6) The following procedure was performed to evaluate the inhibitory potency of the evaluated compounds. • 14. An assay buffer was prepared by adding 3 ml 3% BSA to 47 ml stock buffer. • 15. Solution A was prepared by adding serially diluted inhibitors to the assay buffer. Inhibitors were three-fold diluted in stock buffer in a series of 8 from 15 uM. • 16. Solution B was prepared by adding human, mouse or porcine PLA2 to the assay buffer. This solution was prepared immediately before use to minimize enzyme activity loss. • 17. Solution C was prepared by adding 30 ul PPyrPM stock solution to 90 ul ethanol, and then all 120 ul of PPyrPM solution was transferred drop-wise over approximately 1 min to the continuously stirring 8.82 ml assay buffer to form a final concentration of 4.2 uM PPyrPM vesicle solution. • 18. […]

[2] = target: T2, mouse group 1B PLA2 (mps PLA2) (Mus musculus, UniProt Q9Z0Y2); settings: for inhibition at 15 µM: read-out: ILYPSA % inhibition at 15 μM mps PLA2
T2 construct: made in house; host or cells: E. coli
T2 sequence (Q9Z0Y2 23-146): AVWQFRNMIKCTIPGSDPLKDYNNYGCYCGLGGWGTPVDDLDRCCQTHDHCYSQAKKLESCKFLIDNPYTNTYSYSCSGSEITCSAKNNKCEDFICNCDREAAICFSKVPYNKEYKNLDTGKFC
Source text: as §1, §2, §3, §4, §5, §6

[3] = target: T3, porcine group 1B PLA2 (pps PLA2) (Sus scrofa, UniProt P00592); settings: porcine pancreas secreted PLA2; for IC50: read-out: ILYPSA IC50 pps PLA2; for inhibition at 15 µM: read-out: ILYPSA % inhibition at 15 μM pps PLA2
T3 construct: purchased
T3 sequence (P00592 23-146): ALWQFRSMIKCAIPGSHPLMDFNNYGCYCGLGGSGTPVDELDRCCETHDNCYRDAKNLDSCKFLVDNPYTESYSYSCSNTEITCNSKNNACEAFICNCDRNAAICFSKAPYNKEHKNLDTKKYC
Source text: as §1, §2, §4, §5
The following procedure was performed to evaluate the inhibitory potency of the evaluated compounds. • 14. An assay buffer was prepared by adding 3 ml 3% BSA to 47 ml stock buffer. • 15. Solution A was prepared by adding serially diluted inhibitors to the assay buffer. Inhibitors were three-fold diluted in stock buffer in a series of 8 from 15 uM. • 16. Solution B was prepared by adding human, mouse or porcine PLA2 to the assay buffer. This solution was prepared immediately before use to minimize enzyme activity loss. • 17. Solution C was prepared by adding 30 ul PPyrPM stock solution to 90 ul ethanol, and then all 120 ul of PPyrPM solution was transferred drop-wise over approximately 1 min to the continuously stirring 8.82 ml assay buffer to form a final concentration of 4.2 uM PPyrPM vesicle solution. • 18. The SPECTRAmax microplate spectrofluorometer was set at 37° C. • 19. 100 ul of solution A was added to each inhibition assay well of a costar 96 well black wall/clear bottom plate • 20. 100 ul of solution B was added to each inhibition assay well of a costar 96 well black wall/clear bottom plate. • 21. 100 ul of solution C was added to each inhibition assay well of a costar 96 well black wall/clear bottom plate. • 22. The plate was incubated inside the spectrofluorometer chamber for 3 min. • 23. The fluorescence was read using an excitation of 342 nm and an emission of 395 nm.
Evaluated compounds were tested in duplicate and their values were averaged to plot the inhibition curve and calculate the IC50. Compared to uninhibited controls, lower fluorescent signal at an emission of 395 nm in test reactions evidenced inhibition of PLA2. […] Compounds initially found to be active were repeated to confirm their inhibitory activity. […]

[4] = human pancreas secreted PLA2, read-out: ILYPSA IC50 hps PLA2
[5] = mouse pancreas secreted PLA2, read-out: ILYPSA IC50 mps PLA2

T1 sequence (P04054 23-148): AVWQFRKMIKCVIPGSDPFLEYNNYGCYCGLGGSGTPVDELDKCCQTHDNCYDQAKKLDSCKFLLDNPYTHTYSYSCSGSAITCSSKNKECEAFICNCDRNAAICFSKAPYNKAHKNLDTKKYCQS

SMILES | IC50 [1, 4] | IC50 [2, 5] | IC50 [3] | inhibition at 15 µM ([1]; human pancreas secreted PLA2) | inhibition at 15 µM ([2]; mouse pancreas secreted PLA2) | IC50 [1] | IC50 [2] | inhibition at 15 µM [3]
Cc1c(C(=O)C(N)=O)c2c(OCC(=O)O)cccc2n1CCCCCCCCCCCCNCCCCCCCCCCCCn1c(C)c(C(=O)C(N)=O)c2c(OCC(=O)O)cccc21 [ILY-V-45, (3-Aminooxalyl-1-{12-[12-(3-aminooxalyl-4-carboxymethoxy-2-methyl-indol-1-yl)-dodecylamino]-dodecyl}-2-methyl-1H-indol-4-yloxy)-acetic acid] | 120 nM | 70 nM | 40 nM |  |  |  |  | 
Cc1c(C(=O)C(N)=O)c2c(OCC(=O)NC(CC(=O)O)C(=O)O)nccc2n1Cc1ccccc1 (centres unmarked) [ILY-II-12, 2-(2-(3-(2-amino-2-oxoacetyl)-1-benzyl-2-methyl-1H-pyrrolo[3,2-c]pyridin-4-yloxy)acetamido)succinic acid] |  |  | 3710 nM | 16.6% | 35.7% |  |  | 
Cc1c(C(=O)C(N)=O)c2c(OCC(=O)O)cccc2n1Cc1ccc(-c2ccccc2)cc1 [ILY-V-3] | 1260 nM | 770 nM | 210 nM |  |  |  |  | 
Cc1c(C(=O)C(N)=O)c2c(OC(CCC(=O)O)C(=O)O)cccc2n1Cc1ccccc1 (centres unmarked) [ILY-IV-33, 2-(3-Aminooxalyl-1-benzyl-2-methyl-1H-indol-4-yloxy)-pentanedioic acid] |  |  | 3760 nM | 35.9% | 50.3% |  |  | 
CCC(Oc1nccc2c1c(C(=O)C(N)=O)c(C)n2Cc1ccccc1)C(=O)O (centres unmarked) [ILY-II-11, 2-(3-Aminooxalyl-1-benzyl-2-methyl-1H-pyrrolo[3,2-c]pyridin-4-yloxy)-butyric acid] |  |  | < 20 nM |  |  | 480 nM | 30 nM | 
Cc1c(C(=O)C(N)=O)c2c(OCC(=O)NS(C)(=O)=O)nccc2n1Cc1ccccc1 [ILY-II-7, 2-[1-Benzyl-4-(2-methanesulfonylamino-2-oxo-ethoxy)-2-methyl-1H-pyrrolo[3,2-c]pyridin-3-yl]-2-oxo-acetamide] | 2070 nM | 1050 nM | 40 nM |  |  |  |  | 
COC(=O)C(Oc1cccc2c1c(C(=O)C(N)=O)c(C)n2Cc1ccccc1)C(=O)O (centres unmarked) [ILY-IV-59] |  |  |  | 10.2% | 35.7% |  |  | 56.8%
Cc1c(C(=O)C(N)=O)c2c(O)cccc2n1CCCCCCCCCCCCSCCCCCCCCCCCCn1c(C)c(C(=O)C(N)=O)c2c(O)cccc21 [ILY-V-35] | 1520 nM | 3650 nM | 2090 nM |  |  |  |  | 
Cc1c(C(=O)C(N)=O)c2c(OCC(=O)O)cccc2n1CCCCCCCCCCCCSCCCCSCCCCCCCCCCCCn1c(C)c(C(=O)C(N)=O)c2c(OCC(=O)O)cccc21 [ILY-V-25, 2,2′-(1,1′-(12,12′-(Butane-1,4-diylbis(sulfanediyl))bis(dodecane-12,1-diyl))bis(3-(2-amino-2-oxoacetyl)-2-methyl-1H-indole-4,1-diyl))bis(oxy)diacetic acid] | 150 nM | 350 nM | 190 nM |  |  |  |  | 
Cc1c(C(=O)C(N)=O)c2c(OCC(=O)O)ccc(N)c2n1Cc1ccccc1 [ILY-IV-35] | 8840 nM | 1740 nM | 320 nM |  |  |  |  | 
Cc1c(C(=O)C(N)=O)c2c(OC(C(=O)O)C(=O)O)cccc2n1Cc1ccccc1 [ILY-IV-8, 2-(3-Aminoooxalyl-1-benzyl-2-methyl-1H-indol-4-yloxy)-malonic acid] |  |  | 2250 nM | 41% | 61.2% |  |  | 
Cc1c(C(=O)C(N)=O)c2c(OCC(=O)O)cccc2n1CCCCCCCCCCCCSCCCCCCCCCCCCn1c(C)c(C(=O)C(N)=O)c2c(OCC(=O)O)cccc21 [IL-V-29, 2,2′-(1,1′-(12,12′-thiobis(dodecane-12,1-diyl))bis(3-(2-amino-2-oxoacetyl)-2-methyl-1H-indole-4,1-diyl))bis(oxy)diacetic acid] | 460 nM | 790 nM | 530 nM |  |  |  |  | 
Cc1c(C(=O)C(N)=O)c2c(OCC(=O)O)ccc(Br)c2n1Cc1ccccc1 [ILY-IV-9, (3-Aminooxalyl-1-benzyl-7-bromo-2-methyl-1H-indol-4-yloxy)-acetic acid] | 540 nM | 360 nM | 40 nM |  |  |  |  | 
Cc1c(CC(N)=O)c2c(OCC(=O)O)cccc2n1Cc1ccccc1 [ILY-III-22, (1-Benzyl-3-carbamoylmethyl-2-methyl-1H-indol-4-yloxy)-acetic acid] | 1320 nM | 890 nM |  |  |  |  |  | 
Cc1c(C(=O)C(N)=O)c2c(OCC(=O)O)ccc([N+](=O)[O-])c2n1Cc1ccccc1 [ILY-IV-29] | 1290 nM | 330 nM | 20 nM |  |  |  |  | 
CCCCCCCCn1c(C)c(C(=O)C(N)=O)c2c(OCC(=O)O)cccc21 [ILY-V-2] | 640 nM | 210 nM | 30 nM |  |  |  |  | 
Cc1c(C(=O)C(N)=O)c2c(OC(F)(C(=O)O)C(F)(F)Br)cccc2n1Cc1ccccc1 (centres unmarked) [ILY-IV-55, 2-(3-(2-amino-2-oxoacetyl)-1-benzyl-2-methyl-1H-indol-4-yloxy)-3-bromo-2,3,3-trifluoropropanoic acid] |  |  |  | 34% | 42.6% |  |  | 74.5%
Cc1c(C(=O)C(N)=O)c2c(OC(C(=O)O)C(C)C)cccc2n1CCCCCCCCCCCCn1c(C)c(C(=O)C(N)=O)c2c(OC(C(=O)O)C(C)C)cccc21 (centres unmarked) [ILY-V-44, 2-(3-Aminooxalyl-1-{12-[3-aminooxalyl-4-(1-carboxy-2-methyl-propoxy)-2-methyl-indol-1-yl]-dodecyl}-2-methyl-1H-indol-4-yloxy)-3-methyl-butyric acid] | 280 nM | 480 nM | 50 nM |  |  |  |  | 
CCC(Oc1cccc2c1c(C(=O)C(N)=O)c(C)n2Cc1ccccc1)C(=O)O (centres unmarked) [ILY-IV-20, 2-(3-Aminooxalyl-1-benzyl-2-methyl-1H-indol-4-yloxy)-butyric acid] |  | < 20 nM | < 20 nM |  |  | 180 nM |  | 

From patent US20070135383A1, “Phospholipase inhibitors, including multi-valent phospholipase inhibitors, and use thereof, including as lumen-localized phospholipase inhibitors” (priority 2005, published 2007)
